This passage reports inhibition and Ki results from US20100204182A1, “ECTONUCLEOTIDASE INHIBITORS” (RHEINISCHE FRIEDRICH-WILHELMS-UNIVERSITAT BONN, priority 2006, published 2010).

One experiment concerns the target rP2Y6 (Rattus norvegicus, UniProt Q63371). As to the kind of experiment: Inhibition of UDP binding at rP2Y6. To be noted: read-out: rP2Y6 % inhibition of UDP binding at 100 μM, n = 3, mean ± SEM.
Another experiment concerns the target T1, human NTPDase2 (Homo sapiens, UniProt Q9Y5L3).
T1 sequence (Q9Y5L3 1-495): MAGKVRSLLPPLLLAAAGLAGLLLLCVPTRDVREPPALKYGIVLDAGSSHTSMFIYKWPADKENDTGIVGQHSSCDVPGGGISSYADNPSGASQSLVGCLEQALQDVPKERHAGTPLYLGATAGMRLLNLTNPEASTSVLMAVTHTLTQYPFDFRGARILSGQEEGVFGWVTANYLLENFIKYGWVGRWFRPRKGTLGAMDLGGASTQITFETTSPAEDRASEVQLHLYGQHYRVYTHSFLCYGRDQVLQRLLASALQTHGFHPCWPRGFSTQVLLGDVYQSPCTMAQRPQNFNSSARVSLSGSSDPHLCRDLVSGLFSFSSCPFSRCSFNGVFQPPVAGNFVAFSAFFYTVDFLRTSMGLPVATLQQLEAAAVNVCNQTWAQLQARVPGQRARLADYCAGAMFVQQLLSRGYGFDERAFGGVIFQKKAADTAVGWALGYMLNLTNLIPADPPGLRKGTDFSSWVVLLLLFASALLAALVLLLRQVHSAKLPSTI
Briefly: NTPDase inhibition assay by capillary electrophoresis (CE), NTPDase2. It counts as biochemical.

A further experiment deals with hP2Y12 (Homo sapiens, UniProt Q9H244). Briefly: Inhibition of [3H]PSB-0413 binding at hP2Y12. To be noted: mean ± SEM, read-out: hP2Y12 % Inhibition of [^3H]PSB-0413 Binding at 10 μM, n = 3. How it is done:
(§1) In table 2 inhibition data of selected examples at human P2Y receptor subtypes were collected. It can be seen that no compound was identified that inhibited P2Y receptors at high concentrations of 100 μM and 10 μM, respectively.

The next experiment deals with T2, human NTPDase1 (Homo sapiens, UniProt P49961).
T2 sequence (P49961 1-510): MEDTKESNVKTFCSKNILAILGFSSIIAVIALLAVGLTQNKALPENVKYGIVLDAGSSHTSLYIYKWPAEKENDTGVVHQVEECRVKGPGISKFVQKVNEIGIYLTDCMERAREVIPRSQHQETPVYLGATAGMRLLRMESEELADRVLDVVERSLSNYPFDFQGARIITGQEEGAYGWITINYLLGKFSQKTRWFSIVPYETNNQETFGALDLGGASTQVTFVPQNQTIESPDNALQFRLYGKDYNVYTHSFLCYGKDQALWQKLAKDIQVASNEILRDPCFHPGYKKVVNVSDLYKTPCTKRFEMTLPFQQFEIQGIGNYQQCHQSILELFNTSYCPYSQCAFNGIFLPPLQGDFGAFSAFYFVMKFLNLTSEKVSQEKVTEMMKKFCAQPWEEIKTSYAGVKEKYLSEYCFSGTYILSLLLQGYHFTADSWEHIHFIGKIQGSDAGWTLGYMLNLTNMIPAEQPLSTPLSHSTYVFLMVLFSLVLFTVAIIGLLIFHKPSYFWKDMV
Briefly: NTPDase inhibition assay by capillary electrophoresis (CE), NTPDase1. In kind it is biochemical. To be noted: CE method, ATP 320 μM, Km 17 μM, read-out: NTPDase1 Ki [μM] ± SEM. How it is done: The applied enzyme inhibition assay has been described (Iqbal J, Vollmayer P, Braun N, Zimmermann H, Müller C E. A capillary electrophoresis method for the characterization of ecto-nucleoside triphosphate diphosphohydrolases (NTPDases) and the analysis of inhibitors by in-capillary enzymatic microreaction. Purinergic Signalling 2005, 1, 349-358).
A. CE instrumentation: All experiments were carried out using a P/ACE MDQ capillary electrophoresis system (Beckman Instruments, Fullerton, Calif., USA) equipped with a UV detection system coupled with a diode-array detector (DAD). Data collection and peak area analysis were performed by the P/ACE MDQ software 32 KARAT obtained from Beckman Coulter. The capillary temperature was kept constant at 25° C. The temperature of the sample storing unit was also adjusted to 25° C. The electrophoretic separations were carried out using an eCAP polyacrylamide-coated fused-silica capillary [(30 cm (20 cm effective length)×50 μm internal diameter (I.D.)×360 μm outside diameter (O.D.), obtained from CS-Chromatographie (Langerwehe, Germany)]. The separation was performed using an applied current of −60 μA and a data acquisition rate of 8 Hz. Analytes were detected using direct UV absorbance at 210 nm. The capillary was conditioned by rinsing with water for 2 min and subsequently with buffer (phosphate 50 mM, pH 6.5) for 1 min. Sample injections were made at the cathodic side of the capillary.
B. NTPDase inhibition assay by capillary electrophoresis: Enzyme inhibition assays were carried out at 37° C. in a final volume of 100 μl. The reaction mixture contained 320 μM of ATP (substrate) in reaction buffer. The reaction buffer contained 140 mM NaCl, 5 mM KCl, 1 mM MgCl2, 2 mM CaCl2, and 10 mM Hepes, pH 7.4.
Different concentrations of inhibitors dissolved in DMSO or water (10 μl) were added and the reaction was initiated by the addition of 10 μl of the appropriately diluted recombinant or native human or rat NTPDase enzyme. […] The mixture (final volume 100 μl) was incubated for 15 min and terminated by heating at 99° C. for 4 min. Aliquots of the reaction mixture (50 μl) were then transferred to mini-CE vials and injected into the CE instrument under the conditions described above. 20 μM of UMP was used as internal standard. Inhibition of NTPDase was tested over a range of 6 to 8 concentrations of test compound spanning 3 orders of magnitude to determine K1 values. Each analysis was repeated two times (in triplicates) in two separate experiments. The Cheng-Prusoff equation was used to calculate the K1 values from the IC50 values, determined by the non-linear curve fitting program PRISM® 3.0 (GraphPad, San Diego, Calif., USA). In table 1K, values of selected compounds as inhibitors of human NTPDases are given.

Another experiment concerns the target hP2Y4 (Homo sapiens, UniProt P51582). Briefly: Inhibition of UTP binding at hP2Y4. To be noted: read-out: hP2Y4 % inhibition of UTP binding at 100 μM, n = 3, mean ± SEM. How it is done: as §1
Another experiment has as its target hP2Y2 (Homo sapiens, UniProt P41231). As to the kind of experiment: Inhibition of UTP binding at hP2Y2. The settings on record: read-out: hP2Y2 % inhibition of UTP binding at 100 μM, n = 3, mean ± SEM. How it is done:
as §1

For a further experiment, the target named is T3, rat ecto-5′-nucleotidase (Rattus norvegicus, UniProt P21588).
T3 construct: Catalytically active recombinant soluble glutathione-S-transferase/ecto-5′-nucleotidase fusion protein; GST (glutathione-S-transferase); made in house; host or cells: insect cells, baculovirus system
T3 sequence (P21588 29-551 limits assumed): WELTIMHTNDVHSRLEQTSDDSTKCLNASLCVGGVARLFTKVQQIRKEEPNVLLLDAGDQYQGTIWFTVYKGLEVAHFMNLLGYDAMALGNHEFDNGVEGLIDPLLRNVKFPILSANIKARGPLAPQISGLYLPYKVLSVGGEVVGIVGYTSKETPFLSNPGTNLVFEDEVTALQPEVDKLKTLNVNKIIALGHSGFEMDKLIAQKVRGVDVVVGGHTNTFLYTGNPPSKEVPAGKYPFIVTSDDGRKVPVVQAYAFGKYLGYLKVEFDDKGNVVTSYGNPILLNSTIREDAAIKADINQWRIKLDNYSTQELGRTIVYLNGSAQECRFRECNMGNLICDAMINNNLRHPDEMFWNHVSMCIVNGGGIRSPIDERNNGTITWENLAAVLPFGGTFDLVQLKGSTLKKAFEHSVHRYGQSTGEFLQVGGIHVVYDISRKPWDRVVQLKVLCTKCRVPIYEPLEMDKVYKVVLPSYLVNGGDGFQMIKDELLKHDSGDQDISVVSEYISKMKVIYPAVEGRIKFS
As to the kind of experiment: Ecto-5′-nucleotidase assay by capillary electrophoresis (CE). In kind it is biochemical. To be noted: CE method, read-out: Rat Ecto-5′-NT Ki [μM] ± SEM. How it is done: Catalytically active recombinant soluble glutathione-S-transferase/ecto-5′-nucleotidase fusion protein was expressed in insect cells using the baculovirus system and purified by affinity chromatography using agarose-coupled GSH as previously described [Servos, J., Reilander, H., Zimmermann, H. Drug. Dev. Res. 1998, 45, 269-276]
Enzyme assays were carried out at 37° C. in a final volume of 100 μl. The reaction buffer consisted of 10 mM Hepes (2.38 g/L), 2 mM MgCl2 […], and 1 mM CaCl2 (0.11 g/L), brought to pH 7.4 by adding the appropriate amount of 1-N aqueous HCl solution. The reaction was initiated by the addition of 10 μl of the appropriately diluted enzyme (0.52 μg). The reaction mixture was incubated for 10 min and terminated by heating at 99° C. for 5 min. Nucleosides and nucleotides were stable under these conditions. Aliquots of the reaction mixture (50 μl) were then transferred to mini-CE vials containing 50 μl of the internal standard uridine (final concentration 20 μM). In the absence of an internal standard similar results were obtained. Each analysis was repeated twice (duplicates) in three separate experiments.
CE separations were carried out using a P/ACE MDQ system (Beckman Coulter Instruments, Fullerton, Calif., USA) equipped with a DAD detection system. The electrophoretic separations were carried out using an eCAP fused-silica capillary [30 cm (20 cm effective length)×75 μm internal diameter (I.D), ×375 μm outside diameter (O.D) obtained from Beckman Coulter]. The following conditions were applied: T=25° C., λmax=260 nm, voltage=15 kV, running buffer 40 mM sodium borate buffer, pH 9.1. The capillary was washed with 0.1 M NaOH for 2 min, deionized water for 1 min, and running buffer for 1 min before each injection. Injections were made by applying 0.1 psi of pressure to the sample solution for 30 s. The amount of adenosine formed was determined. The CE instrument was fully controlled through a personal computer, which operated with the analysis software 32 KARAT obtained from Beckman Coulter. Electropherograms were evaluated using the same software.

Sequence of hP2Y2 (P41231 whole entry): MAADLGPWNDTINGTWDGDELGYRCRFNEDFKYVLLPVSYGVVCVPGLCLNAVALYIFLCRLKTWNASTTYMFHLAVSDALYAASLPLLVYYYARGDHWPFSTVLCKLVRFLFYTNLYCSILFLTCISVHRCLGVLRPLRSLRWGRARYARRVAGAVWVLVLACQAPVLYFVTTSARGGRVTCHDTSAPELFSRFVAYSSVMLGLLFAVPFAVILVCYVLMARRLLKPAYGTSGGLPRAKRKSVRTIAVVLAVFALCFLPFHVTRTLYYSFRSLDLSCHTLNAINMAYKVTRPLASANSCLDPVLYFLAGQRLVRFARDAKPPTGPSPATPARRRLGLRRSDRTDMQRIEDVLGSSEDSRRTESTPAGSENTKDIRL
Sequence of hP2Y12 (Q9H244 whole entry): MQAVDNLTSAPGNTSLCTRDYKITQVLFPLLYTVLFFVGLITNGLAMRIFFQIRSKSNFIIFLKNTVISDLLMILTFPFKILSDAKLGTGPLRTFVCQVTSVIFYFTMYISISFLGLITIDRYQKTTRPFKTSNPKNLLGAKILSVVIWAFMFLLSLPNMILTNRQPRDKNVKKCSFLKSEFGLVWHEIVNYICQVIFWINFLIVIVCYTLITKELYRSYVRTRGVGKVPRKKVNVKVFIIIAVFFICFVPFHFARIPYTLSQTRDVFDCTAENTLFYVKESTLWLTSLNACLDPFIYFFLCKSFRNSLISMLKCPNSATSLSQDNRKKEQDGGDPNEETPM
Sequence of hP2Y4 (P51582 whole entry): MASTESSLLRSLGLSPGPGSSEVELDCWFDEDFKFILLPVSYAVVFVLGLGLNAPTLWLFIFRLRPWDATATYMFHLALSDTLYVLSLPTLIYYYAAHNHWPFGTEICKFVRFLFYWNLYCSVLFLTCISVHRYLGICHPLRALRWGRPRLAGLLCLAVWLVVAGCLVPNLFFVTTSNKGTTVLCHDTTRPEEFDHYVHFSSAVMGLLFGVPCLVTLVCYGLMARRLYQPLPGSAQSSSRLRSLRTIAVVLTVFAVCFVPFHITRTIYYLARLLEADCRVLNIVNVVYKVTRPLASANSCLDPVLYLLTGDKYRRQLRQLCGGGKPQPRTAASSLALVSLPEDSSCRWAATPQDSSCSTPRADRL
Sequence of rP2Y6 (Q63371 whole entry): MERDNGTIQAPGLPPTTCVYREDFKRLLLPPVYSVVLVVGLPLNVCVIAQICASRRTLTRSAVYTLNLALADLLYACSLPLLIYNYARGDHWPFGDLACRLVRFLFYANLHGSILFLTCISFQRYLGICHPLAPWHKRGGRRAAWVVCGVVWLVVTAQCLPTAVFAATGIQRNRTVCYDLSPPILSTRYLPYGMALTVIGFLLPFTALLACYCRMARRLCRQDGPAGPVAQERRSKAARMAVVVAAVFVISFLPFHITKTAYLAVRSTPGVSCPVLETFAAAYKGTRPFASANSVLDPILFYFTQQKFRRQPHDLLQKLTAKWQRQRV

As to `CCOP(=O)(OCC)C(NC(=O)CNC(=O)[C@H]1O[C@@H](n2ccc(=O)[nH]c2=O)C(O)C1O)P(=O)(OCC)OCC` (stereo in doubt) [Compound 10, 2-[(2S,3R,4S,5R)-5-(2,4-Dioxo-3,4-dihydropyrimidin-1(2H)-yl)-3,4-dihydroxy-tetrahydrofurane-2-carboxamido]ethaneamidomethylenediphosphonic acid tetraethylester], the inhibition at 100 µM at rP2Y6 was 8 ± 14%; at hP2Y4, 34 ± 15%; at hP2Y2, -38 ± 11%. The Ki at human NTPDase2 is roughly 165 µM; at human NTPDase1, 93 ± 14 µM. Further, the inhibition at 1000 µM on human NTPDase2 (read-out: NTPDase2 inhibition (%) at 1 mM) was 54%. Also, the inhibition at 10 µM on hP2Y12 was found to be 2 ± 5%.

On to `O=C(CNC(=O)[C@H]1O[C@@H](n2ccc(=O)[nH]c2=O)C(O)C1O)Nc1ccc(CP(=O)(O)O)cc1` (stereo in doubt) [Compound 21, 4-[2-((2S,3R,4S,5R)-5-(2,4-Dioxo-3,4-dihydropyrimidine-1(2H)-yl)-3,4-dihydroxy-tetrahydrofurane-2-carboxamido)ethaneamido]benzylphosphonic acid], for which the Ki on rat ecto-5′-nucleotidase is 6.47 ± 1.31 µM.

As for `O=C(O)CCC(NC(=O)CCNC(=O)[C@H]1O[C@@H](N2CCC(=O)NC2=O)[C@H](O)[C@@H]1O)C(=O)O` (stereo partly drawn) [Compound 14, 2-[3-((2S,3R,4S,5R)-5-(2,4-Dioxo-3,4,5,6-tetrahydropyrimidin-1(2H)-yl)-3,4-dihydroxy-tetrahydrofurane-2-carboxamido)propaneamido]-(S)-glutamic acid], the results for the Ki on rat ecto-5′-nucleotidase and at human NTPDase1 were 0.78 ± 0.18 µM and 10.8 ± 1 µM, respectively. Further, the inhibition at 10 µM on hP2Y12 was found to be 6 ± 4%.

`CCOC(=O)C(CC(=O)O)NC(=O)CCCNC(=O)[C@H]1O[C@@H](n2ccc(=O)[nH]c2=O)[C@H](O)[C@@H]1O` (stereo partly drawn) [Compound 15, 2-[4-((2S,3R,4S,5R)-5-(2,4-Dioxo-3,4-dihydropyrimidin-1(2H)-yl)-3,4-dihydroxy-tetrahydrofurane-2-carboxamido)butaneamido]-(S)-aspartic acid-1-ethylester]: on human NTPDase1, the Ki was 29 ± 4 µM. Also, the inhibition at 100 µM on hP2Y2 was -28 ± 11%.

On to `O=C(O)C[C@H](NC(=O)CCCNC(=O)[C@H]1O[C@@H](N2CCC(=O)NC2=O)[C@H](O)[C@@H]1O)C(=O)O` [Compound 23, 2-[4-((2S,3R,4S,5R)-5-(2,4-Dioxo-3,4,5,6-tetrahydropyrimidine-1(2H)-yl)-3,4-dihydroxy-tetrahydrofurane-2-carboxamido)butaneamido]-(S)-aspartic acid], for which the Ki at rat ecto-5′-nucleotidase worked out at 0.18 ± 0.014 µM.

Consider `O=C(O)CC[C@H](NC(=O)CNC(=O)[C@H]1O[C@@H](N2CCC(=O)NC2=O)[C@H](O)[C@@H]1O)C(=O)O` [Compound 24, 2-[2-((2S,3R,4S,5R)-5-(2,4-Dioxo-3,4,5,6-dihydropyrimidine-1(2H)-yl)-3,4-dihydroxy-tetrahydrofurane-2-carboxamido)ethaneamido]-(S)-glutamic acid], for which the Ki on rat ecto-5′-nucleotidase stood at 34.3 ± 0.2 µM.

On to `Cc1cn([C@@H]2O[C@H](C(=O)NCCCC(=O)NC(CC(=O)O)C(=O)O)[C@@H](O)[C@H]2O)c(=O)[nH]c1=O` (stereo partly drawn) [Compound 25, 2-[4-((2S,3R,4S,5R)-5-(2,4-Dioxo-5-methylpyrimidin-1(2H)-yl)-3,4-dihydroxy-tetrahydrofurane-2-carboxamido)butaneamido]-(S)-aspartic acid], for which the Ki at rat ecto-5′-nucleotidase turned out to be 1.61 ± 0.62 µM.

In general, inhibition refers to the drop in the measured response relative to a control, in per cent. Broadly, the Ki is the equilibrium dissociation constant of an inhibitor or competing ligand from its target.
